Test results: patent US20040127518A1, “Modulation of anxiety through blockade of anandamide hydrolysis” (priority 2002, published 2004)
Structures can show the parent of a compound that is named as a salt. Where two headings read alike, the source gives them in different places.

Assays:
FAAH = target: T1, FAAH (Rattus norvegicus, UniProt P97612); experiment: biochemical; format: biochemical; design: from tissue; host or cells: rat brain (membrane fraction of homogenate; Wistar rats)
T1 sequence (P97612 1-579): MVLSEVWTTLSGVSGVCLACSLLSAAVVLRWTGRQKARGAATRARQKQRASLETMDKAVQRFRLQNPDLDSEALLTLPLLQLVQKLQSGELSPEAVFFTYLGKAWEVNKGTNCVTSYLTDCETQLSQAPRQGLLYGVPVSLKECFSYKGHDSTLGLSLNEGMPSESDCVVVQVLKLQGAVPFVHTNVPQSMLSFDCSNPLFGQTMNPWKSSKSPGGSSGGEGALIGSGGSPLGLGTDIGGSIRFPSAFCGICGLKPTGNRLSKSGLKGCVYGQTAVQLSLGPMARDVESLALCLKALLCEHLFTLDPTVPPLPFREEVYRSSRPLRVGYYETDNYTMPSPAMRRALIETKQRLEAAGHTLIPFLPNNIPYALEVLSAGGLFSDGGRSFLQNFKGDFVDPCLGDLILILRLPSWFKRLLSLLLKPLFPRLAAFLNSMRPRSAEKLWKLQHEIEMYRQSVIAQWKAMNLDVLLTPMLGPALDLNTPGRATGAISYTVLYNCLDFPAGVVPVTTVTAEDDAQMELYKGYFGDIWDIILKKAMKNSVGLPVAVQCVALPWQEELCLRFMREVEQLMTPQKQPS

[1] = target: electric eel acetylcholinesterase (Electrophorus electricus, UniProt O42275); experiment: biochemical
Description: We prepared cell fractions from rat brain homogenates, and assayed membrane FAAH activity and cytosol MGL activity using anandamide [ethanolamine-3H] (American Radiolabeled Chemicals, ARC (St. Louis Mo.), 60 Ci/mmol) and 2-mono-oleoyl-glycerol-[glycerol-1,2,3^−3H] (ARC, St. Louis Mo., 20 Ci/mmol), respectively, as substrates (Dinh, T. Proc. Natl. Acad. Sci. U.S.A. (2002)). We conducted [^3H]anandamide transport assays in human astrocytoma cells (Piomelli, D. et al., Proc. Natl. Acad. Sci. U.S.A., 96, 5802-5807 (1999)); CB1 and CB2 binding assays in rat cerebellar membranes and CB2-overexpressing Chinese hamster ovary cells (Receptor Biology-Perkin Elmer, Wellesley, Mass.), respectively, using [^3H]WIN-55212-2 (NEN-Dupont, Boston, Mass., 40-60 Ci/mmol) as a ligand (Devane, W. A. et al. Science, 258, 1946-1949 (1992)); cholinesterase assays with a commercial kit (Sigma, St. Louis, Mo.), using purified enzymes (electric eel acetylcholinesterase type V-S and horse serum cholinesterase; both from Sigma, St. Louis, Mo.) and following manufacturer's instructions.

[2] = Table 4, FAAH IC50, read-out: Inhibition of Amidohydrolase IC50
[3] = Table 5, rat brain membranes, [3H]anandamide, read-out: IC50 (nM) ± S.E.M.
[4] = Table 6, meta-substituted derivatives, read-out: pIC50 obsd (converted)
[5] = Table 3, read-out: Amidohydrolase IC50
[6] = Inhibition of Amidohydrolase IC50(μM)
[7] = rat brain membranes, read-out: IC50
[8] = Table 1, rat brain membranes, mean of at least three experiments, read-out: IC50

Chain of electric eel acetylcholinesterase (O42275 whole entry): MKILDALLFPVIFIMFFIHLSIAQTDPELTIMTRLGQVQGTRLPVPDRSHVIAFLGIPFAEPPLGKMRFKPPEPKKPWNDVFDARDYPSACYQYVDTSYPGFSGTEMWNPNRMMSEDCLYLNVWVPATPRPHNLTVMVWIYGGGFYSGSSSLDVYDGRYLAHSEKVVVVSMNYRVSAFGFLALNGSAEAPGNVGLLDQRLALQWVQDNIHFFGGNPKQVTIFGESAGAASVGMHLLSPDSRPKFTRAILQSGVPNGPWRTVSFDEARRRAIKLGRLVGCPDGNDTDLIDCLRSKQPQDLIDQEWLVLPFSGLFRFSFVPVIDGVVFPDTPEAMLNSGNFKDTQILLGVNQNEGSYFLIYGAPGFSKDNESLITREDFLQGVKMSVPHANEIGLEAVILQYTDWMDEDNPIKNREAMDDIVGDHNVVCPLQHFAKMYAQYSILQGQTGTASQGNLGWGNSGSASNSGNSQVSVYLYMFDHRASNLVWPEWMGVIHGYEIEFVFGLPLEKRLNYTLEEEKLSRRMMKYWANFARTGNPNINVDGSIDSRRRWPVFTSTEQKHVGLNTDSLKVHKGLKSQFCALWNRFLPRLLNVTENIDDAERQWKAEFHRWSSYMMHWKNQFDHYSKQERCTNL

## CCNC(=O)OCC12CC3CC(CC(C3)C1)C2 [#31]
FAAH; [2]
  IC50: > 30000 nM

## Nc1cccc(-c2cccc(OC(=O)NC3CCCCC3)c2)c1 [Compound 3j]
FAAH
  inhibition of FAAH activity (in words): as potent as the parent compound
FAAH; IC50 (nM) ± S.E.M.
  IC50: 64.6 ± 9 nM
FAAH; pIC50 obsd
  IC50: 64.6 nM

## NC(=O)c1ccc(-c2cccc(OC(=O)NC3CCCCC3)c2)cc1 [Compound 3c]
FAAH; [3]
  IC50: 5910 nM

## O=C(NC1CCCCC1)Oc1cccc(-c2ccc(C(F)(F)F)cc2)c1 [Compound 3a]
FAAH; IC50 (nM) ± S.E.M.
  IC50: 1590 nM

## N#Cc1cccc(-c2cccc(OC(=O)NC3CCCCC3)c2)c1 [Compound 3t]
FAAH; [3]
  IC50: 33.9 ± 7 nM
FAAH; [4]
  IC50: 33.9 nM

## O=C(Nc1ccc2ccccc2c1)N1CCCCC1 [PL#22]
FAAH; [2]
  IC50: > 30000 nM

## CC(C)(C)NC(=O)Oc1ccc(-c2ccccc2)cc1Cl [PL#10, 3-chloro-4-biphenylyl N-tert-butylcarbamate]
[1]
  IC50: > 30000 nM
FAAH; [5]
  IC50: > 30000 nM
FAAH; [2]
  IC50: > 30000 nM

## CCCCNC(=O)Oc1ccc2cc(Br)ccc2c1 [PL#3, 6-bromo-2-naphtyhyl N-butylcarbamate]
[1]
  IC50: > 30000 nM
FAAH; [5]
  IC50: 760 nM
FAAH; [2]
  IC50: 760 nM

## O=C(NC(=O)c1ccc(OC(=O)NC2CCCCC2)cc1-c1ccccc1)NC1CCCCC1 [PL#50]
FAAH; [2]
  IC50: 3100 nM

## O=C(NC(=O)c1ccc(-c2cccc(OC(=O)NC3CCCCC3)c2)cc1)NC1CCCCC1 [Compound 3f]
FAAH; IC50 (nM) ± S.E.M.
  IC50: 3020 nM

## O=C(NC1CCCCC1)Oc1ccc(/C=C/c2ccccc2)cc1 [PL#24]
FAAH; read-out: Inhibition of Amidohydrolase IC50
  IC50: 3300 nM

## Cc1ccc(OC(=O)NC2CCCCC2)cc1-c1ccccc1 [PL#48]
FAAH; [2]
  IC50: 200 nM

## O=C(NC1CCCCC1)Oc1ccc2ccn(-c3ccccc3)c2c1 [#36]
FAAH; [2]
  IC50: 1400 nM

## O=C(Nc1ccc(Cl)cc1)NC1CCCCC1 [PL#21]
FAAH; [2]
  IC50: > 30000 nM

## O=C(NC1CCCCC1)Oc1cccc(-c2cccc(C(F)(F)F)c2)c1 [PL#44]
FAAH; [6]
  IC50: 130 nM

## O=C(NC1CCCCC1)Oc1cc(-c2ccccc2)ccc1[N+](=O)[O-] [PL#60]
FAAH; [2]
  IC50: > 30000 nM

## CCCc1cccc(-c2cccc(OC(=O)NC3CCCCC3)c2)c1 [Compound 3p]
FAAH; IC50 (nM) ± S.E.M.
  IC50: 110 ± 16 nM
FAAH; pIC50 obsd
  IC50: 110 nM

## NC(=O)c1ccc(-c2cccc(OC(=O)NC3CCCCC3)c2)cc1 [PL#40]
FAAH; [2]
  IC50: > 10000 nM

## CNC(=O)Oc1ccc2c(c1)[C@@]1(C)CCN(C)[C@H]1N2C [PL#16, (−)-Physostigmine sulfate, reference compound]
FAAH; [5]
  IC50: > 30000 nM
FAAH; [2]
  IC50: > 30000 nM

## O=C(Nc1ccccc1)OC1CCCCC1 [PL#56]
FAAH; [2]
  IC50: 3100 nM

## Cc1cccc(-c2cccc(OC(=O)NC3CCCCC3)c2)c1 [PL#43]
FAAH; [2]
  IC50: 100 nM

## O=C(NC1CCCCC1)Oc1cccc(-c2cccc(OC(=O)NC3CCCCC3)c2)c1 [Compound 3l]
FAAH; [3]
  IC50: 361 ± 137 nM
FAAH; [4]
  IC50: 363 nM

## NS(=O)(=O)c1cccc(-c2cccc(OC(=O)NC3CCCCC3)c2)c1 [Compound 3r]
FAAH; [3]
  IC50: 26.5 ± 4.5 nM
FAAH; [4]
  IC50: 26.3 nM

## CCc1ccc2cc(OC(=O)NC3CCCCC3)ccc2c1 [PL#28]
FAAH; [6]
  IC50: 3000 nM

## O=C(NC1CCCCC1)Oc1ccc2ccccc2c1 [PL#11, 2-naphthyl N-cyclohexylcarbamate]
[1]
  IC50: > 30000 nM
FAAH; [5]
  IC50: 330 nM
FAAH; [2]
  IC50: 330 nM
FAAH; [7]
  IC50: 324 ± 31 nM

## Nc1ccc(-c2cccc(OC(=O)NC3CCCCC3)c2)cc1 [Compound 3d]
FAAH; IC50 (nM) ± S.E.M.
  IC50: 360 ± 59 nM

## CNC(=O)Oc1ccc2ccccc2c1 [PL#4, 2-naphtyl-N-methylcarbamate]
[1]
  IC50: > 30000 nM
FAAH; [8]
  IC50: 18600 nM
FAAH; [5]
  IC50: 18700 nM
FAAH; [2]
  IC50: 18600 nM
FAAH; rat brain membranes, mean±SEM, n=3, read-out: IC50
  IC50: 18600 ± 700 nM

## O=C(NC1CCCCC1)Oc1cccc(-c2ccccc2)c1 [URB524, cyclohexylcarbamic acid biphenyl-3-yl ester]
FAAH; [8]
  IC50: 63 nM
FAAH; [2]
  IC50: 60 nM
FAAH; [3]
  IC50: 63 ± 9 nM
FAAH; Table 6, meta-substituted derivatives
  pIC50 obsd: 7.20
FAAH; [7]
  IC50: 63 ± 9 nM

## O=C(NC1CCCCC1)Oc1cccc(-c2cccc(F)c2)c1 [Compound 3k]
FAAH; [3]
  IC50: 96.6 ± 4 nM
FAAH; [4]
  IC50: 95.5 nM

## O=C(NC(=O)c1ccc(-c2cccc(OC(=O)NC3CCCCC3)c2)cc1)NC1CCCCC1 [PL#42]
FAAH; [6]
  IC50: ~30000 nM

## CCCCNC(=O)Nc1cccc2ccccc12 [PL#23]
FAAH; [2]
  IC50: > 30000 nM

## Cc1ccc(-c2cccc(OC(=O)NC3CCCCC3)c2)cc1 [Compound 3b]
FAAH; [3]
  IC50: 155 ± 21 nM

## O=C(NC1CCCCC1)Oc1cccc(-c2cccc(Cc3ccccc3)c2)c1 [Compound 3o]
FAAH; [3]
  IC50: 1860 nM
FAAH; [4]
  IC50: 1860 nM

## O=C(Oc1ccccc1)N1CCCCC1 [PL#1, 1-phenyl-N-piperidinecarboxylate]
[1]
  IC50: > 30000 nM
FAAH; [5]
  IC50: > 30000 nM
FAAH; [2]
  IC50: > 30000 nM

## O=C(NC1CCCCC1)Oc1cccc(-c2cccc(Oc3ccccc3)c2)c1 [#35]
FAAH; [2]
  IC50: 2600 nM
